We go through 15 molecules from patent US11673889B2, “Substituted imidazo[4,5-c][1,8]naphthyridines as phosphodiesterase inhibitors” (Nanjing Zhengxiang Pharmaceuticals Co., Ltd., priority 2019, dated 2023).

The target of assay [1] is T1, human soluble ENPP1 (Homo sapiens, UniProt P22413).
T1 construct: 20 ng of human soluble ENPP1
T1 sequence (P22413 103-925 limits assumed): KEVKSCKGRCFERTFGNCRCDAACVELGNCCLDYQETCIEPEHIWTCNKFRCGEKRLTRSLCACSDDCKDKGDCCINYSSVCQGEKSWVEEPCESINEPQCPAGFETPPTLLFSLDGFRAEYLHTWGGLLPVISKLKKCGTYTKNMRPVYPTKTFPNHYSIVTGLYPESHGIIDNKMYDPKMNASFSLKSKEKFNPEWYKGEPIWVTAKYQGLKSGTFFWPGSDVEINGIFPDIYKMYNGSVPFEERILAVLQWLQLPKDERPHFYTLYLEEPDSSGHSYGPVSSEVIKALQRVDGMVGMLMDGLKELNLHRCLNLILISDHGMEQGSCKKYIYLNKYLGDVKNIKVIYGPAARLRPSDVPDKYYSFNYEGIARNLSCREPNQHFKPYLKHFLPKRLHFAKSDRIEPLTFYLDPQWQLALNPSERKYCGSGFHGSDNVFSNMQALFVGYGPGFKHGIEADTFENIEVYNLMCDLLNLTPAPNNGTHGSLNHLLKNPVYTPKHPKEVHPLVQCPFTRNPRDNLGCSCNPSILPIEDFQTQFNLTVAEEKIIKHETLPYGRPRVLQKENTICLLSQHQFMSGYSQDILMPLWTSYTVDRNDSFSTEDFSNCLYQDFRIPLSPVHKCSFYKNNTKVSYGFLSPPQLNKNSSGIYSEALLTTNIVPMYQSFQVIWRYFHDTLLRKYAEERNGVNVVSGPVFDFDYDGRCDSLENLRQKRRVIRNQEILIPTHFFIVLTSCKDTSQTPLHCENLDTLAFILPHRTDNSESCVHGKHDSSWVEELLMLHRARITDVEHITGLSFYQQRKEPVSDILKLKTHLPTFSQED
Put plainly: ENPP1 activity assay using p-Nitrophenyl-5′-AMP as a substrate. The assay is classed as biochemical. Summed up: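 Absorbance at 405 nm tracks p-nitrophenol from AMP-pNP hydrolysis after 1 h at room temperature, substrate added as 3 mM (2× final) following 30 min enzyme–compound preincubation. Enzyme: 35 ng human soluble ENPP1. IC50 fitted (variable-slope four-parameter) from percent inhibition normalized to max and blank.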

Assay [2] addresses T1, human soluble ENPP1. The assay can be described thus: ENPP1 activity assay using p-Nitrophenyl-5′-TMP as a substrate. The class given is biochemical. In outline:
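Percent inhibition, set against uninhibited-enzyme and blank wells, was fitted to a four-parameter variable-slope model for IC50. Chromogenic read-out was p-nitrophenol released from TMP-pNP, added as a 2 mM […] solution for 1 h at RT. Before that, 20 ng soluble ENPP1 sat 30 min with compound.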

A further assay deals with T2, ENPP-1, MDA-MB-231 cells (Homo sapiens, UniProt P22413).
T2 sequence (P22413 1-925): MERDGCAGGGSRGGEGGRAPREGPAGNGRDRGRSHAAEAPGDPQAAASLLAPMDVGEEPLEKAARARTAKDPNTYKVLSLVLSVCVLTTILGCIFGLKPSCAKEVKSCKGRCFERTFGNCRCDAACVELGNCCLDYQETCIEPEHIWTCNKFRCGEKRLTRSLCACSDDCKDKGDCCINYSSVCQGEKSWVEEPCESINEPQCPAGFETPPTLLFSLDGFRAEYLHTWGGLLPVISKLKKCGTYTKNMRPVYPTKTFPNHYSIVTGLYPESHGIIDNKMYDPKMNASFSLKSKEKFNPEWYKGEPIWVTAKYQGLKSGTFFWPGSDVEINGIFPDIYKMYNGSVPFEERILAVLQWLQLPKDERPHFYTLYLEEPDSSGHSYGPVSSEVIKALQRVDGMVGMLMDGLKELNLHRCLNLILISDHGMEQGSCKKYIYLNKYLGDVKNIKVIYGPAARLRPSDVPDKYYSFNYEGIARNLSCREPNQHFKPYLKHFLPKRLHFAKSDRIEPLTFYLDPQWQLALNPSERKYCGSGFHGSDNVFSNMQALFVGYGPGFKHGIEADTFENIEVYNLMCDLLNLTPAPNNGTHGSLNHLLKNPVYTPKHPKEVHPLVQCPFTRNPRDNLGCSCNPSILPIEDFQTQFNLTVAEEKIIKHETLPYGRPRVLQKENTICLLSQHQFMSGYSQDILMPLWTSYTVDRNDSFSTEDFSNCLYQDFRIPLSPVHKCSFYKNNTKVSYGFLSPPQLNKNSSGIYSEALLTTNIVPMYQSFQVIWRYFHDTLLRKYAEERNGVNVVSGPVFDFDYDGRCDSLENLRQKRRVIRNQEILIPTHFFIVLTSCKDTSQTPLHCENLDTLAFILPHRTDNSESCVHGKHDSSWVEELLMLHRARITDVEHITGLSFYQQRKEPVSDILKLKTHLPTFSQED
The assay can be described thus: cell-based. As to conditions: for inhibition at 20 µM: MDA-MB-231, read-out: % Inhibition (at 20 μM).

Setting [3] is: substrate TMP-pNP, 20 ng human soluble ENPP1, Tris buffer pH 9.5, read-out: TMP-pNP (IC50).

`COc1ccc2c(ncc3ncn(Cc4ccc(S(N)(=O)=O)cc4C(F)(F)F)c32)n1` [Compound 67, 4-((7-methoxy-1H-imidazo[4,5-c][1,8]naphthyridin-1-yl)methyl)-3-(trifluoromethyl)benzenesulfonamide]: the IC50 against human soluble ENPP1 [1] amounted to 8.6 nM; at human soluble ENPP1 [2] (setting [3]), 2.3 nM; against ENPP-1, MDA-MB-231 cells it was 1300 nM. Moreover, the inhibition at 20 µM at ENPP-1, MDA-MB-231 cells stood at 80%.
As to `COc1ccc2c(ncc3nc(C4CCOCC4)n(Cc4ccc(S(N)(=O)=O)cn4)c32)n1` [Compound 75, 6-((7-methoxy-2-(tetrahydro-2H-pyran-4-yl)-1H-imidazo[4,5-c][1,8]naphthyridin-1-yl)methyl)pyridine-3-sulfonamide], the IC50 on human soluble ENPP1 [1] is 0.68 nM; at human soluble ENPP1 [2], 0.24 nM; against ENPP-1, MDA-MB-231 cells, 310 nM. For the same molecule, at ENPP-1, MDA-MB-231 cells, the inhibition at 20 µM was 81%.
The corresponding values for `COc1ccc2c(ncc3[nH]c(=O)n(Cc4c(F)cc(C(=O)O)cc4F)c32)n1` [Compound 108, 3,5-difluoro-4-((7-methoxy-2-oxo-2,3-dihydro-1H-imidazo[4,5-c][1,8]naphthyridin-1-yl)methyl)benzoic acid] are 66 nM, 16 nM, 5700 nM and 64%.
On to `COc1ccc2c(ncc3c2n(Cc2c(F)cc(S(N)(=O)=O)cc2F)c(=O)n3CC(F)(F)F)n1` [Compound 131, 3,5-difluoro-4-((7-methoxy-2-oxo-3-(2,2,2-trifluoroethyl)-2,3-dihydro-1H-imidazo[4,5-c][1,8]naphthyridin-1-yl)methyl)benzenesulfonamide], for which the IC50 is 0.19 nM at human soluble ENPP1 [1]; 0.04 nM at human soluble ENPP1 [2] (setting [3]); 80 nM against ENPP-1, MDA-MB-231 cells. Also, at ENPP-1, MDA-MB-231 cells, the inhibition at 20 µM came to 88%.
Take `COc1ccc2c(n1)nc(C)c1nc(CO)n(Cc3cc(F)c(S(N)(=O)=O)cc3F)c12` [Compound 94, 2,5-difluoro-4-((2-(hydroxymethyl)-7-methoxy-4-methyl-1H-imidazo[4,5-c][1,8]naphthyridin-1-yl)methyl)benzenesulfonamide]: the IC50 came out at 8.8 nM against human soluble ENPP1 [1]; 3.4 nM at human soluble ENPP1 [2]; 2700 nM at ENPP-1, MDA-MB-231 cells. Besides, at ENPP-1, MDA-MB-231 cells, the inhibition at 20 µM is 74%.
As to `COc1ccc2c(n1)nc(C)c1nc(C)n(Cc3cc(F)c(S(N)(=O)=O)cc3F)c12` [Compound 90, 2,5-difluoro-4-((7-methoxy-2,4-dimethyl-1H-imidazo[4,5-c][1,8]naphthyridin-1-yl)methyl)benzenesulfonamide], the IC50 against human soluble ENPP1 [1] came to 7.7 nM; against human soluble ENPP1 [2] it was 2.4 nM; on ENPP-1, MDA-MB-231 cells, 980 nM. Also, the inhibition at 20 µM at ENPP-1, MDA-MB-231 cells amounted to 74%.
For `COc1ccc2c(ncc3[nH]c(=O)n(Cc4c(F)cc(S(=O)(=O)NC(C)=O)cc4F)c32)n1` [Compound 104, sodium acetyl((3,5-difluoro-4-((7-methoxy-2-oxo-2,3-dihydro-1H-imidazo[4,5-c][1,8]naphthyridin-1-yl)methyl)phenyl)sulfonyl)amide], the IC50 at human soluble ENPP1 [1] is 11 nM; against human soluble ENPP1 [2] it was 8.9 nM; on ENPP-1, MDA-MB-231 cells, 3400 nM. The inhibition at 20 µM on ENPP-1, MDA-MB-231 cells turned out to be 72%.
The corresponding values for `COc1ccc2c(ncc3ncn(Cc4ccc(S(N)(=O)=O)cc4C#N)c32)n1` [Compound 69, 3-cyano-4-((7-methoxy-1H-imidazo[4,5-c][1,8]naphthyridin-1-yl)methyl)benzenesulfonamide] are 2.1 nM, 0.67 nM, 510 nM and 79%.
The corresponding values for `COc1ccc2c(ncc3nc(C)n(Cc4ccc(S(=O)(=O)NC(C)=O)cn4)c32)n1` [Compound 77, N-((6-((7-methoxy-2-methyl-1H-imidazo[4,5-c][1,8]naphthyridin-1-yl)methyl)pyridin-3-yl)sulfonyl)acetamide] are 15 nM, 8.6 nM, 4800 nM and 65%.
On to `COc1ccc2c(ncc3c2n(Cc2c(F)cc(S(N)(=O)=O)cc2F)c(=O)n3CCO)n1` [Compound 115, 3,5-difluoro-4-((3-(2-hydroxyethyl)-7-methoxy-2-oxo-2,3-dihydro-1H-imidazo[4,5-c][1,8]naphthyridin-1-yl)methyl)benzenesulfonamide], for which the IC50 on human soluble ENPP1 [1] worked out at 0.32 nM; on human soluble ENPP1 [2] (setting [3]), 0.11 nM; against ENPP-1, MDA-MB-231 cells it was 56 nM. In addition, the inhibition at 20 µM on ENPP-1, MDA-MB-231 cells was 78%.
With `COc1ccc2c(ncc3[nH]c(=O)n([C@H](C)c4ccc(S(N)(=O)=O)cc4)c32)n1` [Compound 101, (R)-4-(1-(7-methoxy-2-oxo-2,3-dihydro-1H-imidazo[4,5-c][1,8]naphthyridin-1-yl)ethyl)benzenesulfonamide], the IC50 came to 1.1 nM on human soluble ENPP1 [1]; 0.67 nM against human soluble ENPP1 [2]; 2400 nM against ENPP-1, MDA-MB-231 cells. Also, the inhibition at 20 µM at ENPP-1, MDA-MB-231 cells amounted to 76%.
Turning to `COc1ccc2c(n1)nc(C)c1ncn(Cc3ccc(S(N)(=O)=O)c(F)c3)c12` [Compound 88, 2-fluoro-4-((7-methoxy-4-methyl-1H-imidazo[4,5-c][1,8]naphthyridin-1-yl)methyl)benzenesulfonamide], the IC50 at human soluble ENPP1 [1] is 12 nM; at human soluble ENPP1 [2], 4 nM; against ENPP-1, MDA-MB-231 cells, 2200 nM. Besides, the inhibition at 20 µM on ENPP-1, MDA-MB-231 cells is 81%.
On to `COc1ccc2c(ncc3[nH]c(=O)n(Cc4c(F)cc(S(N)(=O)=O)c(F)c4F)c32)n1` [Compound 112, 2,3,5-trifluoro-4-((7-methoxy-2-oxo-2,3-dihydro-1H-imidazo[4,5-c][1,8]naphthyridin-1-yl)methyl)benzenesulfonamide], for which the half-inhibitory concentration (IC50) is 0.99 nM against human soluble ENPP1 [1]; 0.3 nM on human soluble ENPP1 [2] (setting [3]); 70 nM against ENPP-1, MDA-MB-231 cells. The inhibition at 20 µM at ENPP-1, MDA-MB-231 cells was found to be 80%.
Consider `COc1ccc2c(ncc3[nH]c(=O)n(Cc4c(F)cc(P(=O)(O)O)cc4F)c32)n1` [Compound 124, (3,5-difluoro-4-((7-methoxy-2-oxo-2,3-dihydro-1H-imidazo[4,5-c][1,8]naphthyridin-1-yl)methyl)phenyl)phosphonic acid], for which the IC50 against human soluble ENPP1 [1] is 56 nM; at human soluble ENPP1 [2], 19 nM; at ENPP-1, MDA-MB-231 cells, 9.6 nM. At ENPP-1, MDA-MB-231 cells, the inhibition at 20 µM came to 86%.
Turning to `COc1ccc2c(ncc3nc(CC(N)=O)n(Cc4ccc(S(N)(=O)=O)c(F)c4)c32)n1` [Compound 84, 2-(1-(3-fluoro-4-sulfamoylbenzyl)-7-methoxy-1H-imidazo[4,5-c][1,8]naphthyridin-2-yl)acetamide], the IC50 against human soluble ENPP1 [1] was found to be 8.4 nM; at human soluble ENPP1 [2] (setting [3]), 3.5 nM; against ENPP-1, MDA-MB-231 cells, 2500 nM. Further, on ENPP-1, MDA-MB-231 cells, the inhibition at 20 µM came out at 76%.

Broadly, the IC50 is the concentration needed to halve the response being measured. The inhibition is the share of the control response that was lost under treatment.
